The values that follow are results of earlier work, collected in patent publication US20100136106A1, “Modified Release Famciclovir Compositions” (priority 2005, published 2010).

Where two headings read alike, the source gives them in different places.

The conditions of data set [1]: for metabolite, % of the dose in the urine: in vivo, po.
Assay in data set [2]: not given
This is another data set of the same source.

For data set [3] the following is noted: for AUC(0-∞) / Cmax / Tmax: healthy male volunteers.
The conditions of data set [4]: below 85% relative humidity.
The conditions of data set [5]: single 500 mg oral dose of radiolabeled famciclovir.
Assay in data set [6]: not given
This is another data set of the same source.

The conditions of data set [7]: for solubility in water: 25° C.
The next data set relates to cytochrome P450. Particulars: human liver microsomes. (In general: Liver microsomes are vesicles of endoplasmic reticulum, rich in cytochrome P450 enzymes.)
For data set [8] the following is noted: intravenous penciclovir.
The conditions of data set [9]: 500 mg famciclovir t.i.d. for 7 days.
The conditions of data set [10]: 5 mg/kg radiolabeled penciclovir, 1-hour infusion.
In a further data set the test system is viral DNA polymerase. To be noted: competitively with deoxyguanine triphosphate.
[11] abbreviates: 500 mg famciclovir single oral dose, patients with herpes zoster.

`CC(=O)OCC(CO)CCn1cnc2cnc(N)nc21` (stereo not drawn) [6-deoxy monoacetylated penciclovir]: in [1], the “metabolite, % of the dose in the urine” value is less than 0.5%.
For the molecule `Nc1ncc2ncn(CCC(CO)CO)c2n1` [6-deoxy penciclovir], the “metabolite, % of the dose in the urine” value in data set [1] is listed as 5%.
With `CC(=O)OCC(CCn1cnc2cnc(N)nc21)COC(C)=O` [famciclovir, 2-[2-(2-amino-9H-purin-9-yl)ethyl]-1,3-propanediol diacetate], under “octanol/phosphate buffer (pH 7.4)”, the “partition coefficient P” value was 2.08. Also, the “partition coefficient P” value (octanol/water (pH 4.8)) was 1.09. Moreover, the “decrease in Cmax” value in data set [2] (given 2 hours after a meal compared to 2 hours before a meal) is recorded as 18%. In addition, the “effect of food on absorption” value in data set [2] (regular doses) is “does not affect the extent of absorption”. Moreover, in data set [3] (125 mg single oral dose), the “AUC(0-∞)” value is 2240 ng·h/mL; the Cmax (usually the maximum level reached in the sampled fluid or tissue) was 800 ng/mL; the Tmax (in general, the time at which the peak concentration occurs) is 54 min. In data set [3] (250 mg single oral dose), the “AUC(0-∞)” value is 4480 ng·h/mL, the Cmax is 1600 ng/mL and the Tmax was 54 min. Besides, in [3] (500 mg single oral dose), the “AUC(0-∞)” value is 8950 ng·h/mL, the peak concentration (Cmax) was 3300 ng/mL and the Tmax is 54 min. Besides, the hygroscopicity entry in data set [4] is recorded as “not hygroscopic”. For the same molecule, the “administered radiolabeled dose collected in urine” value in data set [5] (first 6 hours) is “Approximately 60%”. Besides, in [5] (over 72 hours), the “administered radioactivity recovered in feces” value is 27% and the “administered radioactivity recovered in urine” value is reported as 73%. Also, in [6] (setting [11]), the “AUC (mean±SD)” value is 12100 ± 1700 ng·h/mL, the “Cmax (mean±SD)” value was 4000 ± 700 ng/mL and the “Tmax (mean±SD)” value is 42 ± 12 min. Moreover, in data set [7], the solubility in acetone result is on record as “freely soluble”, the solubility in ethanol result was “sparingly soluble”, the solubility in isopropanol entry was “sparingly soluble” and the solubility in methanol result is given as “freely soluble”. In data set [7] (initially), the solubility in water is reported as greater than 25 % w/v. Further, in data set [1] (oral administration of famciclovir), the “famciclovir detected in plasma or urine” value is on record as “Little or no”. Further, the “role of cytochrome P450 in famciclovir metabolism” value in the data set on cytochrome P450 was “does not play an important role”.
For the molecule `CC(=O)OCC(CO)CCn1cnc2c(=O)[nH]c(N)nc21` (stereo not drawn) [monoacetylated penciclovir], the “metabolite, % of the dose in the urine” value in [1] is given as less than 0.5%.
`CC(=O)OCC(CCn1cnc2cnc(N)nc21)COC(C)=O` [monohydrate]: the solubility in water in data set [7] (monohydrate that precipitates) is listed as 2-3 % w/v.
Regarding `Nc1nc2c(ncn2CCC(CO)CO)c(=O)[nH]1` [penciclovir], the “decrease of penciclovir Cmax with food” value in data set [2] (capsule formulation of famciclovir with food (approximately 910 Kcal and 26% fat)) is “approximately 50%”. The “dose proportionality of penciclovir concentrations” value in [3] (famciclovir dose range of 125 mg to 750 mg, single dose) is “increased in proportion to dose”. The entries for the “share of the radioactivity excreted in the urine” value in data set [5] and in data set [10] were 82% and 91%, respectively. The “AUC of penciclovir greater in patients with herpes zoster as compared to healthy volunteers” value in data set [6] (500 mg famciclovir oral) is on record as “approximately 35%”. In data set [6] (seven patients with herpes zoster), the half-life (usually how long it takes for the measured level to halve) was 180 ± 66 min. The “renal clearance as share of total plasma clearance” value in [8] is 74.5±8.8%. Besides, in [9], the accumulation of penciclovir entry is “no accumulation”. Moreover, the “dose excreted in urine” value in data set [10] (first 6 hours) is 83%. In data set [10] (over 24 hours), the “administered radioactivity recovered in urine” value was “Approximately 94%”.
As to penciclovir triphosphate, the “inhibition of viral DNA polymerase” value with viral DNA polymerase was “inhibit viral DNA polymerase competitively”.
